A word on the melting point: it is the temperature of the solid-liquid transition.

`CCOC(=O)CCCc1sc(N)nc1-c1ccc(Cl)cc1` [Example 22, ethyl 2-amino-4-(4-chlorophenyl)-5-thiazolebutanoate] yielded a melting point of 114 to 115 °C.

The molecule `Cc1nccn1-c1nc(-c2ccc(Cl)cc2)c(CCCCO)s1` [Example 24, 4-(4-chlorophenyl)-2-(2-methyl-1-imidazolyl)-5-thiazolebutanol] had a melting point of 98 to 99 °C.

In the case of `COc1ccccc1OCCCc1oc(N2CCOCC2)nc1-c1ccc(Cl)cc1` [Example 39, 4-(4-chlorophenyl)-2-(4-morpholinyl)-5-[3-(2-methoxyphenoxy)propyl]oxazole], the melting point was 81 to 82 °C.

As to `CCOC(=O)C1CCN(c2nc(-c3ccc(Cl)cc3)c(CCCOc3ccccc3OC)o2)CC1` [Example 40, ethyl N-[4-(4-chlorophenyl)-5-[3-(2-methoxyphenoxy)propyl]-2-oxazolyl]isonipecotate], the melting point was in the range of 80 to 81 °C.

Molecule `COc1ccccc1OCCCc1oc(-n2cnc(-c3ccccc3)c2-c2ccccc2)nc1-c1ccc(Cl)cc1` [Example 42, 4-(4-chlorophenyl)-2-(4,5-diphenyl-1-imidazolyl)-5-[3-(2-methoxyphenoxy)propyl]oxazole] had a melting point of 118 to 119 °C.

`Cc1ccccc1OCCCc1oc(-n2ccnc2)nc1-c1ccc(Cl)cc1` [Example 55, 4-(4-chlorophenyl)-2-(1-imidazolyl)-5-[3-(2-methylphenoxy)propyl]oxazole] displayed a melting point of 113 to 114 °C.

Consider `CCc1nccn1-c1nc(-c2ccc(Cl)cc2)c(CCCOc2ccccc2C)o1` [Example 56, 4-(4-chlorophenyl)-2-(2-ethyl-1-imidazolyl)-5-[3-(2-methylphenoxy)propyl]oxazole], for which the melting point was in the range of 91 to 92 °C.

For `CCc1nccn1-c1nc(-c2ccc(Cl)cc2)c(CCCOc2ccccc2OC)o1` [Example 57, 4-(4-chlorophenyl)-2-(2-ethyl-1-imidazolyl)-5-[3-(2-methoxyphenoxy)propyl]oxazole], the melting point was in the range of 78 to 79 °C.

`Cc1nccn1-c1nc(-c2ccc(Cl)cc2)c(CCCOc2ccccc2O)o1` [Example 61, 4-(4-chlorophenyl)-5-[3-(2-hydroxyphenoxy)propyl]-2-(2-methyl-1-imidazolyl)oxazole] returned a melting point of 110 to 111 °C.

Take `CCOC(=O)c1nccn1-c1nc(-c2ccc(Cl)cc2)c(CCCOc2ccccc2OC)o1` [Example 69, ethyl 1-[4-(4-chlorophenyl)-5-[3-(2-methoxyphenoxy)propyl]-2-oxazolyl]imidazole-2-carboxylate]: the melting point was 90 to 91 °C.

Regarding `Cc1cc(C)n(-c2nc(-c3ccc(Cl)cc3)c(CCCOc3ccccc3C)o2)n1` [Example 72, 4-(4-chlorophenyl)-2-(3,5-dimethyl-1-pyrazolyl)-5-[3-(2-methylphenoxy)propyl]oxazole], the melting point fell in the range of 103 to 104 °C.

The molecule `CCCc1nccn1-c1nc(-c2ccc(Cl)cc2)c(CCCOc2ccccc2OC)o1` [Example 83, 4-(4-chlorophenyl)-5-[3-(2-methoxyphenoxy)propyl]-2-(2-propyl-1-imidazolyl)oxazole] showed a melting point of 89 to 90 °C.

For the molecule `CCCCCCCCCCCc1nccn1-c1nc(-c2ccc(Cl)cc2)c(CCCOc2ccccc2OC)o1` [Example 84, 4-(4-chlorophenyl)-5-[3-(2-methoxyphenoxy)propyl]-2-(2-undecyl-1-imidazolyl)oxazole], the melting point fell in the range of 53 to 54 °C.

`Cc1nccn1-c1nc(-c2ccc(Cl)cc2)c(CCCOc2ccccc2CCCO)o1` [Example 93, 4-(4-chlorophenyl)-5-[3-(2-(3-hydroxypropyl)phenoxy)propyl]-2-(2-methyl-1-imidazolyl)oxazole] displayed a melting point of 119 to 120 °C.

`Cc1nccn1-c1nc(-c2ccc(Cl)cc2)c(CCCOc2ccccc2CCC(=O)O)o1` [Example 94, 3-[2-[3-[4-(4-chlorophenyl)-2-(2-methyl-1-imidazolyl)-5-oxazolyl]propoxy]phenyl]propionic acid] displayed a melting point of 184 to 185 °C.

Source of the values: patent publication US7396848B1, “Neurotrophin production/secretion promoting agent” (Takeda Pharmaceutical Company Limited, priority 2000, dated 2008).
